Measured values: EP3892734B1, “SCREENING METHODS AND THERAPEUTIC APPLICATIONS BASED ON BACTERIAL MOTILITY INHIBITION” (Ludwig-Maximilians-Universität München, priority 2020, dated 2021)
Converted amounts (≈) assume the structure as drawn. “And” between values parts separate entries of the source, which are not always exact repeats. Identical values can stand only once. “Also recorded” adds a separate entry of the source. Like-named read-outs stand apart in the source and are kept apart here.

What was measured:
[1] = system: H. pylori flaA-luciferase reporter strain N6; test: microbe, parasite or virus in culture; format: cell-based, Helicobacter pylori; conditions: for inhibitory activity in luciferase reporter assay: result in words; for Weak activity (% of non-inhibited control): flaA-luciferase reporter strain N6, IC50 not determined
Excerpt: The H. pylori flaA promoter was fused with a luciferase operon (luxAB) from Vibrio harveyi in a H. pylori suicide plasmid (Niehus, Ye, Suerbaum, & Josenhans, 2002). The flaA reporter fusion was recombined into the H. pylori chromosome and the resulting strain tested to be strongly luminescence positive. The reporter strain (N6 flaA-lux4B) activated luminescence to about 40,000 to 60,000 counts per second using luciferase substrate at an OD600 of 0.8 (mid-log phase) in liquid culture. The negative control value of a non-reporter strain or reporter strain without luminescence substrate was close to zero. […] The Z-Factor (Zhang et al., 1999) determined for the assay with various bacterial inhibitors measured in quadruplicates or triplicates was routinely between 0.6 and 0.7, with a confidence interval of 95%.
H. pylori luminescence reporter strains were passaged on blood agar plates less than 22 hours prior to the start of the experiment. The passage number for these assays was not higher than five to preserve the strain's properties and genetic stability. Luciferase reaction buffer was prepared as follows: 50 mM disodium phosphate (Na2HPO4) and 2% BSA were dissolved in HPLC water, filter sterilized, aliquoted and frozen at - 20°C.
Bacteria were harvested in brain-heart infusion medium (BHI, 3% yeast extract with 5% horse serum added) and adjusted to an OD600 of 0.8 at room temperature. 50 µl of the bacterial suspension were added per well of a 96 well plate (non-binding, Greiner Bio-One 655901). 2 µl of each of the test compounds (provided as a 10 mM DMSO solution) were added to the sample wells. The same amount of pure, diluted DMSO was added to the control wells for a concentration of a maximum of 4% DMSO per well, since higher concentrations will interfere with metabolic functions of H. pylori and cause false negative results. The microwell plate was incubated inside a sterile sealed PM Gas Bag (BIOLOG #3032) together with a CampyGen Compact pack (Oxoid) to generate microaerobic conditions at 37°C and with shaking at 175 rpm for 4 h.
Shortly before taking the measurement, the luciferase substrate was prepared by diluting the luminescence substrate decanal (10% stock, Sigma Aldrich) at a 1 :2,000 dilution in luciferase reaction buffer. 60 µl of the substrate were added per well of a white 96 microwell plate (Thermo Scientific #236105) without the lid.
For the final luciferase measurement, 10 µl of bacterial solution were transferred with the epMotion 96 (Eppendorf) simultaneously to the wells containing the luciferase substrate and incubated on a microwell plate shaker for 10 s to lyse the bacteria. The measurements were recorded with a Perkin Elmer Victor 3/WNallac 1420 plate reader (luminometry, measurement time: 0.5 sec) and integrated to counts per sec. For the background measurement, 10 µl sterile medium containing 4% DMSO was added to the wells. For each measurement, at least four luciferase reporter positive control wells (without inhibitory compound) and four negative control wells (background without bacteria) were run on the same day and under the same assay conditions in parallel.

H. pylori N6 = test: vitality / metabolic (respiratory inhibition) counter-screen; format: cell-based, Helicobacter pylori; conditions: > 100% indicates no inhibition
H. pylori = test: therapeutic treatment in chronic H. pylori mouse infection model (cfu counts, cagL PCR); format: in vivo, C57B/L6 mice
Method: 6-8 weeks old specific pathogen-free C57B/L6 mice were obtained from Charles River Laboratories. They were acclimatized to the new surroundings for one week before starting the assays. For the whole duration of the experiment, mice had access to sterile chow and sterile water ad libitum. In week one of the experiment, H. pylori was administered at 3×10^8 bacteria per mouse per inoculum (100 µl) on two days with one day of break in between. The proof-of-principle treatment was started two weeks after the end of the inoculation week, assuming a stable infection at this time point. The mice were treated in separate groups (8-14 animals per group), as outlined in the results, with compound(s), antibiotic (metronidazole at 14.3 mg/kg/day), a combination of both antibiotic and compound (for concentrations, see Results), or mock-treated once daily over seven consecutive days by intra-gastric gavage. After the treatment week, the mice were kept for another two weeks under normal housing and feeding conditions with sterilized chow and sterile water ad libitum. At the end of the assay period (week seven), the mice were necropsied by cervical dislocation under CO2 anesthesia. The animal experiments were authorized under German federal law by the LAVES (Lower Saxony Government Authority).
Then, BL2 was further tested for therapeutic efficacy in a mouse model of chronic H. pylori infection (Fig. 5). Six groups of mice (10 mice per group in each of the four infected and/or treated groups, and six mice in both of the control groups) were established in this mouse treatment trial. For the treatment groups, mice were infected in week one (using ca. 3×10^8 bacteria per animal; Methods), and the chronic infection was manifested for two more weeks. The once-daily treatment (intragastric gavage) started in week four on seven consecutive days. For the treatment groups, three H. pylori-infected groups were evaluated in parallel. One dose of treatment was given daily.
Group one was treated with metronidazole (14.3 mg/kg/day) only, an established anti-H. pylori antibiotic. The antibiotic concentration corresponds to concentrations routinely used in human treatment. Group two was treated with metronidazole (dosed at 14.3 mg/kg/day) and BL2 (10 mg/kg/day) in combination, and group three received BL2 (10 mg/kg/day) only. In addition, one infected and mock-treated group was kept as positive control, and two mock-infected groups were set aside, one for administering BL2 only (10 mg/kg/day; microbiota compound control) and one which was mock-infected and mock-treated (microbiota null control).
The read-out of successful treatment was the reduction of colony-forming units (cfus) of bacteria in infected and treated mice, over infected, non-treated, mice, at the end of the experiment. […] All mice in the infected positive control group were colonized (both cfu counts and PCR-positive), although the cfu counts in three positive animals were rather low.

[2] = Helicobacter pylori, H. pylori flaA-luciferase reporter strain N6, Table 6
[3] = H. pylori flaA-luciferase reporter strain N6, Table 6

Compound | IC50 [1, 2] | inhibitory activity in luciferase reporter assay [1] | also measured
Cc1ccc(-n2c(=O)c(Br)c(CSC(=N)N)n2C)cc1 [DJ-5, (4-bromo-2-methyl-5-oxo-1-(p-tolyl)-2,5-dihydro-1H-pyrazol-3-yl)methyl carbamimidothioate] | < 4.5 µg/mL |  | 
Cn1c(CSC(=N)N)c(Br)c(=O)n1-c1ccc(Cl)cc1 [DJ-9, (4-bromo-1-(4'-chlorophenyl)-2-methyl-5-oxo-2,5-dihydro-1H-pyrazol-3-vl)methyl carbamimidothioate] | < 4.5 µg/mL |  | 
CC1(C)S[C@@H]2[C@H](NC(=O)[C@H](N)c3ccccc3)C(=O)N2[C@H]1C(=O)O [ampicillin, reference compound] |  | did not alter the readings in the luciferase reporter assay | 
Cn1c(CS)c(Br)c(=O)n1-c1ccccc1 [DJ-2, 4-bromo-5-(mercaptomethyl)-1-methyl-2-phenyl-1,2-dihydro-3H-pyrazol-3-one] |  |  | IC50 [1, 3]: 0.44 µg/mL (≈ 1.47 µM)
CC(C)c1ccc(-n2c(=O)c(Br)c(CSC(=N)N)n2C)cc1 [DJ-7, (4-bromo-1-(4'-isopropylphenyl)-2-methyl-5-oxo-2,5-dihydro-1H-pyrazol-3-vl)methyl carbamimidothioate] | < 4.5 µg/mL |  | 
Cn1c(CSC(=N)N)c(Br)c(=O)n1-c1ccccc1 [DJ-1, (4-bromo-2-methyl-5-oxo-1-phenyl-2,5-dihydro-1H-pyrazol-3-yl)methyl carbamimidothioate] | < 4.5 µg/mL |  | Luciferase assay (% of control) ([1]; H. pylori screen): 1,4 % of control; IC50 ([1]; Helicobacter pylori, read-out: IC50 (luciferase assay), luciferase flagellar reporter assay, Table 3): 3.05 µg/mL and 10.3 µM; Metabolic assay (% of control) (H. pylori N6): 107,7 % of control
Cn1c(CSC(=N)N)c(Br)c(=O)n1-c1ccc(C(F)(F)F)cc1 [DJ-10, (4-bromo-2-methyl-5-oxo-1-(4'-(trifluoromethyl)phenyl)-2,5-dihvdro-1H-pyrazol-3-yl)methyl carbamimidothioate] | 10.8 µg/mL (≈ 26.5 µM) |  | 
CCn1c(CSC(=N)N)c(Br)c(=O)n1-c1ccccc1 [DJ-11] | 10.6 µg/mL (≈ 29.7 µM) |  | 
Cn1c(CN)c(Br)c(=O)n1-c1ccccc1 [DJ-4, 5-(aminomethyl)-4-bromo-1-methyl-2-phenyl-1,2-dihydro-3H-pyrazol-3-one] |  | No inhibitory activity was detectable | IC50 [1, 3]: No IC50
Cn1c(CSC(=N)N)c(Br)c(=O)n1-c1ccccn1 [DJ-13] |  | detectable yet weaker inhibitory activity | Weak activity (% of non-inhibited control) [1]: Weak activity (+/- 50 % of non-inhibited control) (IC50 not determined)
Cn1c(CSCCO)c(Br)c(=O)n1-c1ccccc1 [DJ-3, 4-bromo-5-(((2-hydroxyethyl)thio)methyl)-1-methyl-2-phenyl-1,2-dihydro-3H-pyrazol-3-one] |  | No inhibitory activity was detectable | IC50 [1, 3]: No IC50
Cn1c(CSC(=N)N)c(Br)c(=O)n1-c1ccc(-c2ccccc2)cc1 [DJ-8, (1-([1',1"-biphenyl]-4'-yl)-4-bromo-2-methyl-5-oxo-2,5-dihydro-1H-pyrazol-3-yl)methyl carbamimidothioate] | < 4.5 µg/mL |  | 
carbonyl cyanide m-chlorophenyl hydrazine [CCCP, reference compound] |  | inhibited the luminescence reporter activity | 
Cc1cc(C)cc(-n2c(=O)c(Br)c(CSC(=N)N)n2C)c1 [DJ-6, (4-bromo-1-(3',5'-dimethylphenyl)-2-methyl-5-oxo-2,5-dihydro-1H-pyrazol-3-yl)methyl carbamimidothioate] | < 4.5 µg/mL |  | 
Cc1ccc(-n2c(=O)c(Br)c(CSCc3c(Br)c(=O)n(-c4ccc(C)cc4)n3C)n2C)cc1 [DJ-14, 5,5'-(thiobis(methylene))bis(4-bromo-1-methyl-2-(p-tolyl)-1,2-dihydro-3H-pyrazol-3-one)] |  | detectable yet weaker inhibitory activity | Weak activity (% of non-inhibited control) [1]: Weak activity (+/- 90 % of control) (IC50 not determined)
CCn1c(CS)c(Br)c(=O)n1-c1ccccc1 [DJ-12] | < 4.5 µg/mL |  | 
C=C(C)[C@H]1Cc2c(ccc3c2O[C@@H]2COc4cc(OC)c(OC)cc4[C@@H]2C3=O)O1 [rotenone, reference compound] |  | inhibited the luminescence reporter activity | 
Cc1ncc([N+](=O)[O-])n1CCO [metronidazole, reference compound] |  |  | reduction of colony-forming units (cfus) / bacterial loads in stomach (H. pylori; BL2 10 mg/kg/day, metronidazole 14.3 mg/kg/day, once daily, 7 days, intragastric gavage, versus infected control): significantly reduced bacterial counts; also recorded: left no bacterial counts; gene-specific (cagL) PCR signal in stomach homogenates (H. pylori; two weeks post-treatment): strong residual bacterial load; also recorded: all mice still had detectable specific bacterial (PCR) signal; also recorded: still readily detectable by PCR
